# US20040185499A1, “Method of epitope scanning using fluorescence polarization” (priority 2003, published 2004)
# Where no end group is shown, it is not given here. The star is where a group is joined. 6FAM = O=C1OC2(c3ccc(O)cc3Oc3cc(O)ccc32)c2cc(C(=O)*)ccc21
# Tested on: antibodies to MPB70 in M. bovis positive bovine serum
# Type: binding
# Conditions: pH 7.5
row,Sequence,increase in fluorescence polarization with M. bovis positive bovine serum sample
1,AASNNPELTTLTAAL (6FAM-AASNNPELTTLTAAL; listed as Mycobacterium bovis) [Peptide 19],substantial increase in fluorescence polarization
2,ASNNPELTTLTAALS (6FAM-ASNNPELTTLTAALS; listed as Mycobacterium bovis) [Peptide 20],substantial increase in fluorescence polarization
3,AVAASNNPELTTLTA (6FAM-AVAASNNPELTTLTA; listed as Mycobacterium bovis) [Peptide 17],substantial increase in fluorescence polarization
4,NNPELTTLTAALSGQ (6FAM-NNPELTTLTAALSGQ; listed as Mycobacterium bovis) [Peptide 22],substantial increase in fluorescence polarization
5,SNNPELTTLTAALSG (6FAM-SNNPELTTLTAALSG; listed as Mycobacterium bovis) [Peptide 21],substantial increase in fluorescence polarization
6,VAASNNPELTTLTAA (6FAM-VAASNNPELTTLTAA; listed as Mycobacterium bovis) [Peptide 18],substantial increase in fluorescence polarization
7,VAVAASNNPELTTLT (6FAM-VAVAASNNPELTTLT; listed as Mycobacterium bovis) [Peptide 16],substantial increase in fluorescence polarization
